Results reported in the supplement of paper PMC4862054.

What follows are compounds tested on CAL-148 (assay: normalised viability (% of control), CellTiter-Blue; higher = more viable cells (about 100 = DMSO control)). Details: 100 nM; incubation time: 72 h.
Method in brief: (§1)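 Seeded at 20 µl suspension per well onto compound-loaded 384-well plates, breast cancer cell lines were incubated 72 h. CellTiter-Blue fluorescence at 560/590 nm was then read, with each plate normalised to vehicle (100) and a positive kill control (0). Normalised viability is reported at a single listed concentration of the series.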

Row | Compound | normalised viability [%]
1 | C=CCN(/C=C1/C(=O)O[C@H](COC)[C@@]2(C)C1=C(O)C(=O)C1=C2[C@H](OC(C)=O)C[C@]2(C)C(=O)CC[C@@H]12)CC=C [PX-866] | 107
2 | CC[C@H](CO)Nc1nc(NCc2ccccc2)c2ncn(C(C)C)c2n1 [Roscovitine] | 83.5

What follows are compounds tested on CAL-51 in the same assay as above. Details: 0.3 nM; incubation time: 72 h.
Method in brief: as §1

Row | Compound | normalised viability [%]
3 | Cc1cc(Nc2nc(N[C@@H](C)c3ncc(F)cn3)ncc2Cl)[nH]n1 [AZD1480] | 115

Same assay, conditions: 3 nM; incubation time: 72 h

Row | Compound | normalised viability [%]
4 | COc1ccc(S(=O)(=O)Nc2cccnc2Nc2ccc(O)cc2)cc1 [ABT-751] | 114
5 | Cc1cc(Nc2nc(N[C@@H](C)c3ncc(F)cn3)ncc2Cl)[nH]n1 [AZD1480] | 114
6 | COc1c2occc2cc2ccc(=O)oc12 [Methoxsalen] | 109
7 | C=CCN(/C=C1/C(=O)O[C@H](COC)[C@@]2(C)C1=C(O)C(=O)C1=C2[C@H](OC(C)=O)C[C@]2(C)C(=O)CC[C@@H]12)CC=C [PX-866] | 118
8 | CC[C@H](CO)Nc1nc(NCc2ccccc2)c2ncn(C(C)C)c2n1 [Roscovitine] | 111

Same assay, conditions: 10 nM; incubation time: 72 h

Row | Compound | normalised viability [%]
9 | Cc1cc(Nc2nc(N[C@@H](C)c3ncc(F)cn3)ncc2Cl)[nH]n1 [AZD1480] | 110

Same assay, conditions: 30 nM; incubation time: 72 h

Row | Compound | normalised viability [%]
10 | COc1ccc(S(=O)(=O)Nc2cccnc2Nc2ccc(O)cc2)cc1 [ABT-751] | 107
11 | COc1c2occc2cc2ccc(=O)oc12 [Methoxsalen] | 109
12 | C=CCN(/C=C1/C(=O)O[C@H](COC)[C@@]2(C)C1=C(O)C(=O)C1=C2[C@H](OC(C)=O)C[C@]2(C)C(=O)CC[C@@H]12)CC=C [PX-866] | 107
13 | CC[C@H](CO)Nc1nc(NCc2ccccc2)c2ncn(C(C)C)c2n1 [Roscovitine] | 105

Same assay, conditions: 100 nM; incubation time: 72 h

Row | Compound | normalised viability [%]
14 | COc1ccc(S(=O)(=O)Nc2cccnc2Nc2ccc(O)cc2)cc1 [ABT-751] | 107
15 | COc1c2occc2cc2ccc(=O)oc12 [Methoxsalen] | 104
16 | C=CCN(/C=C1/C(=O)O[C@H](COC)[C@@]2(C)C1=C(O)C(=O)C1=C2[C@H](OC(C)=O)C[C@]2(C)C(=O)CC[C@@H]12)CC=C [PX-866] | 103
17 | CC[C@H](CO)Nc1nc(NCc2ccccc2)c2ncn(C(C)C)c2n1 [Roscovitine] | 105

The compounds below were run on CAL-85-1 in the same assay as above. Details: 0.3 nM; incubation time: 72 h.
Method in brief: as §1

Row | Compound | normalised viability [%]
18 | Cc1cc(Nc2nc(N[C@@H](C)c3ncc(F)cn3)ncc2Cl)[nH]n1 [AZD1480] | 102

Same assay, conditions: 3 nM; incubation time: 72 h

Row | Compound | normalised viability [%]
19 | COc1ccc(S(=O)(=O)Nc2cccnc2Nc2ccc(O)cc2)cc1 [ABT-751] | 94.1
20 | Cc1cc(Nc2nc(N[C@@H](C)c3ncc(F)cn3)ncc2Cl)[nH]n1 [AZD1480] | 91.4
21 | COc1c2occc2cc2ccc(=O)oc12 [Methoxsalen] | 92.9
22 | C=CCN(/C=C1/C(=O)O[C@H](COC)[C@@]2(C)C1=C(O)C(=O)C1=C2[C@H](OC(C)=O)C[C@]2(C)C(=O)CC[C@@H]12)CC=C [PX-866] | 111
23 | CC[C@H](CO)Nc1nc(NCc2ccccc2)c2ncn(C(C)C)c2n1 [Roscovitine] | 93.3

Same assay, conditions: 10 nM; incubation time: 72 h

Row | Compound | normalised viability [%]
24 | Cc1cc(Nc2nc(N[C@@H](C)c3ncc(F)cn3)ncc2Cl)[nH]n1 [AZD1480] | 96.4

Same assay, conditions: 30 nM; incubation time: 72 h

Row | Compound | normalised viability [%]
25 | COc1ccc(S(=O)(=O)Nc2cccnc2Nc2ccc(O)cc2)cc1 [ABT-751] | 86.2
26 | COc1c2occc2cc2ccc(=O)oc12 [Methoxsalen] | 92.6
27 | C=CCN(/C=C1/C(=O)O[C@H](COC)[C@@]2(C)C1=C(O)C(=O)C1=C2[C@H](OC(C)=O)C[C@]2(C)C(=O)CC[C@@H]12)CC=C [PX-866] | 97.4
28 | CC[C@H](CO)Nc1nc(NCc2ccccc2)c2ncn(C(C)C)c2n1 [Roscovitine] | 88.8

Same assay, conditions: 100 nM; incubation time: 72 h

Row | Compound | normalised viability [%]
29 | COc1ccc(S(=O)(=O)Nc2cccnc2Nc2ccc(O)cc2)cc1 [ABT-751] | 88.9
30 | COc1c2occc2cc2ccc(=O)oc12 [Methoxsalen] | 92.5
31 | C=CCN(/C=C1/C(=O)O[C@H](COC)[C@@]2(C)C1=C(O)C(=O)C1=C2[C@H](OC(C)=O)C[C@]2(C)C(=O)CC[C@@H]12)CC=C [PX-866] | 102
32 | CC[C@H](CO)Nc1nc(NCc2ccccc2)c2ncn(C(C)C)c2n1 [Roscovitine] | 90.8

Each compound was assayed on MDA-MB-231 in the same assay as above. Details: 1 nM; incubation time: 72 h.
Method in brief: as §1

Row | Compound | normalised viability [%]
33 | Cc1cc(Nc2nc(N[C@@H](C)c3ncc(F)cn3)ncc2Cl)[nH]n1 [AZD1480] | 107

Same assay, conditions: 10 nM; incubation time: 72 h

Row | Compound | normalised viability [%]
34 | COc1ccc(S(=O)(=O)Nc2cccnc2Nc2ccc(O)cc2)cc1 [ABT-751] | 89.3
35 | COc1c2occc2cc2ccc(=O)oc12 [Methoxsalen] | 102
36 | C=CCN(/C=C1/C(=O)O[C@H](COC)[C@@]2(C)C1=C(O)C(=O)C1=C2[C@H](OC(C)=O)C[C@]2(C)C(=O)CC[C@@H]12)CC=C [PX-866] | 92.9
37 | CC[C@H](CO)Nc1nc(NCc2ccccc2)c2ncn(C(C)C)c2n1 [Roscovitine] | 88

Same assay, conditions: 100 nM; incubation time: 72 h

Row | Compound | normalised viability [%]
38 | Cc1cc(Nc2nc(N[C@@H](C)c3ncc(F)cn3)ncc2Cl)[nH]n1 [AZD1480] | 95.5

Same assay, conditions: 1000 nM; incubation time: 72 h

Row | Compound | normalised viability [%]
39 | COc1ccc(S(=O)(=O)Nc2cccnc2Nc2ccc(O)cc2)cc1 [ABT-751] | 28.8
40 | Cc1cc(Nc2nc(N[C@@H](C)c3ncc(F)cn3)ncc2Cl)[nH]n1 [AZD1480] | 85.7
41 | COc1c2occc2cc2ccc(=O)oc12 [Methoxsalen] | 99.1
42 | C=CCN(/C=C1/C(=O)O[C@H](COC)[C@@]2(C)C1=C(O)C(=O)C1=C2[C@H](OC(C)=O)C[C@]2(C)C(=O)CC[C@@H]12)CC=C [PX-866] | 72.6
43 | CC[C@H](CO)Nc1nc(NCc2ccccc2)c2ncn(C(C)C)c2n1 [Roscovitine] | 96.5
